54 molecules from US6620828B2, “Thiazole compounds and pharmaceutical compositions for inhibiting protein kinases and methods for their use” (Agouron Pharmaceuticals, Inc., priority 1999, dated 2003) can be followed below.

The experiment has as its system human umbilical vein endothelial cells (HUVEC). As to the kind of experiment: HUVEC proliferation assay. Format: cell-based. The note with it: for inhibition at 0.05 µM / inhibition at 0.01 µM / inhibition at 0.15 µM / inhibition at 0.001 µM: Homo sapiens, HUVEC; for inhibition at 0.05 µM: 50 nM; for inhibition at 0.01 µM: 10 nM; for inhibition at 0.15 µM / % inhibition @ 150 nM: Table I screening results, 150 nM; for inhibition at 0.001 µM: 1 nM. In a few lines:
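Readout was MTT dye reduction (A595) after 72 h of stimulation with VEGF at 6 ng/ml final. Compound, in 0.1% DMSO final, was added 1 h before VEGF to HUVEC starved 24 h in 1% FBS. % inhibition was scaled between VEGF-alone and unstimulated wells; IC50 was fitted from triplicate dose curves.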

The mark [1] stands for this setting: Inhibition of HUVEC Proliferation, crude combinatorial urea library, read-out: Inhibition @ 50 nM.
The mark [2] stands for this setting: crude combinatorial urea library, read-out: Inhibition of HUVEC Proliferation % inhibition @ 10 nM.
The mark [3] stands for this setting: crude combinatorial urea library, read-out: Inhibition of HUVEC Proliferation % inhibition @ 50 nM.
The mark [4] stands for this setting: crude combinatorial amide library.
Where [5] appears, read: Table II screening results, crude combinatorial amide library.
The mark [6] stands for this setting: Table II screening results, crude combinatorial amide library, read-out: % inhibition @ 10 nM.
Where [7] appears, read: Inhibition of HUVEC Proliferation, crude combinatorial urea library, read-out: % inhibition @ 50 nM.
[8] abbreviates: table following Table II (untitled), crude combinatorial library.
Where [9] appears, read: table following Table II (untitled), crude combinatorial library, read-out: % inhibition @ 10 nM.

Structures are written as SMILES. Like-named read-outs stand apart in the source and are kept apart here.

Take `CCN(CCNC(=O)Nc1nc(N)c(-c2nc(-c3cc(NC(=O)c4cccc(OC)c4)c(F)cc3F)no2)s1)c1cccc(C)c1`: the inhibition at 0.05 µM under setting [1] was determined as 67%.
Take `COc1cccc(C(=O)Nc2cccc(-c3csc(-c4sc(NC(=O)NCC(C)C)nc4N)n3)c2)c1`: the inhibition at 0.01 µM under setting [2] is -1%. Besides, the inhibition at 0.05 µM under setting [3] is -23%.
`CC/C=C/CC(=O)Nc1cccc(-c2csc(-c3sc(Nc4cc(OC)c(OC)c(OC)c4)nc3N)n2)c1`: under setting [4], the inhibition at 0.15 µM worked out at 19%.
As to `COc1cccc(C(=O)Nc2cccc(-c3csc(-c4sc(NC(=O)NCC#N)nc4N)n3)c2)c1`, under setting [2], the inhibition at 0.01 µM is -3%. In addition, the inhibition at 0.05 µM under setting [3] is 3%.
Take `COc1cc(Nc2nc(N)c(-c3nc(-c4cccc(NC(=O)c5cccc(C#N)c5)c4)cs3)s2)cc(OC)c1OC`: the inhibition at 0.15 µM under setting [4] worked out at 56%.
As to `COc1cccc(C(=O)Nc2cc(-c3noc(-c4sc(NC(=O)NCC(N)=O)nc4N)n3)c(F)cc2F)c1` [drawing 803], the inhibition at 0.05 µM under setting [1] worked out at 30%.
As to `COc1cc(Nc2nc(N)c(-c3nc(-c4cccc(NC(=O)C#Cc5ccccc5)c4)cs3)s2)cc(OC)c1OC`, the inhibition at 0.15 µM under setting [4] is -25%.
The same measure, in the same setting: under `COc1cc(Nc2nc(N)c(-c3nc(-c4cccc(NC(=O)c5ccc6c(c5)OC(F)(F)O6)c4)cs3)s2)cc(OC)c1OC` stands 72%.
As for `COc1cccc(C(=O)Nc2cccc(-c3csc(-c4sc(NC(=O)NCCO)nc4N)n3)c2)c1`, the inhibition at 0.01 µM under setting [2] is 38%.
Turning to `COc1cccc(C(=O)Nc2cc(-c3noc(-c4sc(NC(=O)NCCN5CCNCC5)nc4N)n3)c(F)cc2F)c1`, the inhibition at 0.05 µM under setting [1] came to 76%.
Regarding `CNC(=O)Nc1nc(N)c(-c2nc(-c3cccc(NC(=O)C4CCSCN4C)c3)cs2)s1` (centres unmarked), under setting [5], the inhibition at 0.001 µM was 1%. Also, the inhibition at 0.01 µM under setting [6] was determined as 62%.
In the case of `COc1cccc(C(=O)Nc2cccc(-c3csc(-c4sc(NC(=O)NCC(=O)NO)nc4N)n3)c2)c1`, the inhibition at 0.01 µM under setting [2] is -1%. In addition, under setting [3], the inhibition at 0.05 µM is 37%.
For the molecule `CC/C=C(\C)C(=O)Nc1cccc(-c2csc(-c3sc(NC(=O)NC)nc3N)n2)c1`, under setting [5], the inhibition at 0.001 µM was -12%. The inhibition at 0.01 µM under setting [6] amounted to 67%.
With `COc1cc(Nc2nc(N)c(-c3nc(-c4cccc(NC(=O)C(C)c5ccc(CC(C)C)cc5)c4)cs3)s2)cc(OC)c1OC` (centres unmarked), under setting [4], the “% inhibition @ 150 nM” value came out at 0%.
With `COc1cc(Nc2nc(N)c(-c3nc(-c4cccc(NC(=O)Cc5cc(F)ccc5F)c4)cs3)s2)cc(OC)c1OC`, the inhibition at 0.15 µM under setting [4] amounted to 49%.
With `COc1cccc(C(=O)Nc2cc(-c3csc(-c4sc(NC(=O)NCCCn5ccnc5)nc4N)n3)c(F)cc2F)c1`, under setting [7], the inhibition at 0.05 µM came to 6%.
Consider `C/C=C(\C)C(=O)Nc1cccc(-c2csc(-c3sc(NC(=O)NC)nc3N)n2)c1`, for which the inhibition at 0.001 µM under setting [5] was 5%. For the same molecule, the inhibition at 0.01 µM under setting [6] worked out at 17%.
Turning to `COc1cc(Nc2nc(N)c(-c3nc(-c4cccc(NC(=O)/C=C/c5cccc6ccccc56)c4)cs3)s2)cc(OC)c1OC`, the “% inhibition @ 150 nM” value under setting [4] was determined as 0%.
As to `COc1cccc(C(=O)Nc2cc(-c3noc(-c4sc(NC(=O)NCc5ccccc5)nc4N)n3)c(F)cc2F)c1`, the inhibition at 0.05 µM under setting [1] stood at 61%.
On to `COc1cc(Nc2nc(N)c(-c3nc(-c4cc(NC(=O)C(=O)CC(C)C)ccc4C)no3)s2)cc(OC)c1OC`, for which the inhibition at 0.001 µM under setting [8] was found to be 7%. The inhibition at 0.01 µM under setting [9] came to 18%.
Turning to `COc1cccc(C(=O)Nc2cc(-c3csc(-c4sc(NC(=O)NCc5cccnc5)nc4N)n3)c(F)cc2F)c1`, under setting [7], the inhibition at 0.05 µM was determined as 102%.
Consider `CCN1CC(NC(=O)Nc2nc(N)c(-c3nc(-c4cc(NC(=O)c5cccc(OC)c5)c(F)cc4F)cs3)s2)CN1CC`, for which the inhibition at 0.05 µM under setting [7] came out at 82%.
`COc1cccc(C(=O)Nc2cc(-c3csc(-c4sc(NC(=O)NCc5ccncc5)nc4N)n3)c(F)cc2F)c1`: the inhibition at 0.05 µM under setting [7] was 95%.
As for `COc1cc(Nc2nc(N)c(-c3nc(-c4cccc(NC(=O)c5ccc(C(C)C)cc5)c4)cs3)s2)cc(OC)c1OC` [drawing 943], the “% inhibition @ 150 nM” value (crude combinatorial amide library, 0.15 µM) was found to be 6%.
Take `COc1cccc(C(=O)Nc2cc(-c3csc(-c4sc(NC(=O)NCCS(=O)(=O)O)nc4N)n3)c(F)cc2F)c1`: under setting [7], the inhibition at 0.05 µM was found to be 27%.
With `COc1cccc(C(=O)Nc2cccc(-c3csc(-c4sc(NC(=O)N[C@H]5CC[C@H](O)CC5)nc4N)n3)c2)c1`, the inhibition at 0.01 µM under setting [2] is -6%. Under setting [3], the inhibition at 0.05 µM was 21%.
With `COc1cccc(C(=O)Nc2cc(-c3noc(-c4sc(NC(=O)NCCNc5ccccc5)nc4N)n3)c(F)cc2F)c1`, the inhibition at 0.05 µM under setting [1] came to 89%.
In the case of `CNC(=O)Nc1nc(N)c(-c2nc(-c3cccc(NC(=O)C4CCN(C(C)=O)CC4)c3)cs2)s1`, the inhibition at 0.001 µM under setting [5] was found to be 23%. In addition, under setting [6], the inhibition at 0.01 µM was -15%.
As to `COc1cc(Nc2nc(N)c(-c3nc(-c4cccc(NC(=O)Cc5ccc6ccccc6c5)c4)cs3)s2)cc(OC)c1OC`, under setting [4], the inhibition at 0.15 µM is -7%.
Take `COc1cc(/C=C/C(=O)Nc2cccc(-c3csc(-c4sc(Nc5cc(OC)c(OC)c(OC)c5)nc4N)n3)c2)cc(OC)c1OC`: the “% inhibition @ 150 nM” value under setting [4] is given as 0%.
With `CNC(=O)Nc1nc(N)c(-c2nc(-c3cccc(NC(=O)C(C)C)c3)cs2)s1`, the inhibition at 0.001 µM under setting [5] stood at 10%. For the same molecule, the inhibition at 0.01 µM under setting [6] was -45%.
`COc1cccc(C(=O)Nc2cc(-c3csc(-c4sc(NC(=O)NCCCN5CCCC5)nc4N)n3)c(F)cc2F)c1`: under setting [7], the inhibition at 0.05 µM came out at 92%.
Take `COc1cc(Nc2nc(N)c(-c3nc(-c4cc(NC(=O)c5ccc(=O)oc5)ccc4C)no3)s2)cc(OC)c1OC`: the inhibition at 0.001 µM under setting [8] is 30%. Under setting [9], the inhibition at 0.01 µM stood at 51%.
Turning to `COc1cccc(C(=O)Nc2cc(-c3csc(-c4sc(NC(=O)NCc5ccccc5)nc4N)n3)c(F)cc2F)c1` [drawing 678], the inhibition at 0.05 µM under setting [7] was determined as 93%.
On to `CNC(=O)Nc1nc(N)c(-c2nc(-c3cccc(NC(=O)C4C[C@H]5C=C[C@@H]4C5)c3)cs2)s1` (some centres unmarked), for which the inhibition at 0.001 µM under setting [5] stood at 4%. In addition, the inhibition at 0.01 µM under setting [6] was -18%.
Consider `COc1cccc(C(=O)Nc2cccc(-c3csc(-c4sc(NC(=O)NCCc5ccc(S(N)(=O)=O)cc5)nc4N)n3)c2)c1`, for which, under setting [2], the inhibition at 0.01 µM amounted to 34%. The inhibition at 0.05 µM under setting [3] was 49%.
`CNC(=O)CNC(=O)Nc1nc(N)c(-c2nc(-c3cc(NC(=O)c4cccc(OC)c4)c(F)cc3F)cs2)s1`: the inhibition at 0.05 µM under setting [7] amounted to 73%.
Regarding `CNC(=O)Nc1nc(N)c(-c2nc(-c3cccc(NC(=O)C(C)ON=C(C)C)c3)cs2)s1` (centres unmarked), the inhibition at 0.001 µM under setting [5] came out at 6%. Moreover, under setting [6], the inhibition at 0.01 µM was -7%.
With `COc1cccc(C(=O)Nc2cccc(-c3csc(-c4sc(NC(=O)NCCNc5ccccc5)nc4N)n3)c2)c1`, under setting [2], the inhibition at 0.01 µM was found to be 28%. Moreover, the inhibition at 0.05 µM under setting [3] is 62%.
Consider `COC(=O)c1cccc(C(=O)Nc2cccc(-c3csc(-c4sc(Nc5cc(OC)c(OC)c(OC)c5)nc4N)n3)c2)c1`, for which the inhibition at 0.15 µM under setting [4] amounted to 42%.
On to `COc1ccccc1CCC(=O)Nc1cccc(-c2csc(-c3sc(Nc4cc(OC)c(OC)c(OC)c4)nc3N)n2)c1`, for which, under setting [4], the “% inhibition @ 150 nM” value is 0%.
For `COc1cccc(C(=O)Nc2cccc(-c3csc(-c4sc(NC(=O)NCC(=O)O)nc4N)n3)c2)c1`, under setting [2], the inhibition at 0.01 µM was found to be 42%. The inhibition at 0.05 µM under setting [3] worked out at 52%.
As to `COc1cccc(C(=O)Nc2cc(-c3csc(-c4sc(NC(=O)NCCN5CCOCC5)nc4N)n3)c(F)cc2F)c1` [drawing 700], the inhibition at 0.05 µM under setting [7] stood at 96%.
As for `COc1cccc(C(=O)Nc2cccc(-c3csc(-c4sc(NC(=O)NCCc5ccc(N)cc5)nc4N)n3)c2)c1`, the inhibition at 0.01 µM under setting [2] is -3%. Moreover, under setting [3], the inhibition at 0.05 µM was found to be 3%.
With `CCN(CC)CCCNC(=O)Nc1nc(N)c(-c2nc(-c3cccc(NC(=O)c4cccc(OC)c4)c3)cs2)s1`, under setting [2], the inhibition at 0.01 µM was -7%. Under setting [3], the inhibition at 0.05 µM came to 45%.
As for `COc1cccc(C(=O)Nc2cc(-c3noc(-c4sc(NC(=O)NCCCN5CCCC5=O)nc4N)n3)c(F)cc2F)c1` [drawing 763], under setting [1], the inhibition at 0.05 µM is 106%.
Consider `CCO/C(C)=C/C(=O)Nc1cccc(-c2csc(-c3sc(NC(=O)NC)nc3N)n2)c1`, for which, under setting [5], the inhibition at 0.001 µM is 7%. Also, the inhibition at 0.01 µM under setting [6] was 47%.
Take `COc1cccc(C(=O)Nc2cccc(-c3csc(-c4sc(NC(=O)NCCCN5CCN(C)CC5)nc4N)n3)c2)c1`: under setting [2], the inhibition at 0.01 µM is -9%. Under setting [3], the inhibition at 0.05 µM is 67%.
In the case of `COc1cc(Nc2nc(N)c(-c3nc(-c4cccc(NC(=O)Cc5ccccc5C)c4)cs3)s2)cc(OC)c1OC`, the “% inhibition @ 150 nM” value under setting [4] is listed as 0%.
Take `COc1cccc(C(=O)Nc2cc(-c3noc(-c4sc(NC(=O)N[C@H](CO)Cc5c[nH]cn5)nc4N)n3)c(F)cc2F)c1`: the inhibition at 0.05 µM under setting [1] stood at 77%.
As for `COc1cccc(C(=O)Nc2cccc(-c3csc(-c4sc(NC(=O)NCc5ccc(N(C)C)cc5)nc4N)n3)c2)c1`, the inhibition at 0.01 µM under setting [2] came to 19%. Also, under setting [3], the inhibition at 0.05 µM is 67%.
On to `CNC(=O)Nc1nc(N)c(-c2nc(-c3cccc(NC(=O)c4ccc(C(C)=O)s4)c3)cs2)s1`, for which the inhibition at 0.001 µM under setting [5] came out at 49%. The inhibition at 0.01 µM under setting [6] was 97%.
Take `COc1cc(Nc2nc(N)c(-c3nc(-c4cccc(NC(=O)CCC(C)C)c4)cs3)s2)cc(OC)c1OC`: the inhibition at 0.15 µM under setting [4] turned out to be 39%.
Consider `CNC(=O)Nc1nc(N)c(-c2nc(-c3cccc(NC(=O)c4cc(C)[nH]c4C)c3)cs2)s1`, for which the inhibition at 0.001 µM under setting [5] was found to be 25%. Besides, under setting [6], the inhibition at 0.01 µM is -13%.
